Laboratory results reported in publication PMC2248166, “Quantitative peptide binding motifs for 19 human and mouse MHC class I molecules derived using positional scanning combinatorial peptide libraries” (Immunome Research, 2008).

How the values were obtained:
Type in all cases: binding
HLA A*3201 = HLA A*3201 (Homo sapiens, UniProt P04439, A270S/D101S/D185E/E176V/E277Q/F133L/G103R/G107R/G231S/H175R/I121M/I218V/I322F/K168Q/L105A/L300P/L318F/M331R/P208A/P217A/Q94H/R106L/R138Q/S129P/T104I/T323A/T345S/V100E/V321M/V358M); assay: biochemical
H-2 K^d = H-2 K^d (Mus musculus, UniProt P01902)
Sequence of H-2 K^d (P01887 21-119): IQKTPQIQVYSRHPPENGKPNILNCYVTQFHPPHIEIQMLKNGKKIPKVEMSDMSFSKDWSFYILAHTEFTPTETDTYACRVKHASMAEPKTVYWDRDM
Sequence of H-2 K^d (P01902 22-368): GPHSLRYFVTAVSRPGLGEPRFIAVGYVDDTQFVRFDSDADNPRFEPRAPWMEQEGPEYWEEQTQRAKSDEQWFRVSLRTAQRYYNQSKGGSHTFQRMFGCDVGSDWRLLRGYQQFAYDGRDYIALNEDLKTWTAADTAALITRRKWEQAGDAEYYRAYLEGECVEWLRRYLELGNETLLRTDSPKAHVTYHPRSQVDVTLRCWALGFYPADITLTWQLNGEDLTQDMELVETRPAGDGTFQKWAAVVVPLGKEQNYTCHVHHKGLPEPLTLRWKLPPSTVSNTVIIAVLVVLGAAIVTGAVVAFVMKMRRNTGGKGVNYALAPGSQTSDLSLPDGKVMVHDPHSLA

HLA B*1501 = HLA B*1501 (Homo sapiens, UniProt P01889, A329T/A93T/A95T/C349S/D201E/D98Y/E187L/E204Q/E69M/E70A/K202T/N87E/Q94N/R155S/R180W/S121R/S35A/S48A/V306I/V36M/Y140S/Y91S); assay: biochemical
H-2 D^b = H-2 D^b (Mus musculus, UniProt P01899)
Sequence of H-2 D^b (P01887 21-119): as the sequence (P01887 21-119) above
Sequence of H-2 D^b (P01899 25-362): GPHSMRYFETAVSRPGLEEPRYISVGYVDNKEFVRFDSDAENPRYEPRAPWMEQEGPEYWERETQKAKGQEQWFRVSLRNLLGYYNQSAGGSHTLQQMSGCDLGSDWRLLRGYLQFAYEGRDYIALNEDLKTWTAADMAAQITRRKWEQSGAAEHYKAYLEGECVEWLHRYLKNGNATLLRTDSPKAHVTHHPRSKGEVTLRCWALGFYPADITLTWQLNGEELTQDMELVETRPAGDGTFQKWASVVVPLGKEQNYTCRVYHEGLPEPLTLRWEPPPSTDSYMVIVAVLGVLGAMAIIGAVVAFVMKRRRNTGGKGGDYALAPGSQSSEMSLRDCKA

HLA B*1503 = HLA B*1503 (Homo sapiens, UniProt P01889, A329T/A93T/A95T/C349S/D201E/D98Y/E187L/E204Q/K202T/N87E/Q94N/R155S/R180L/S121R/S35A/V306I/V36M/Y140S/Y91S); assay: biochemical
HLA B*5401 = HLA B*5401 (Homo sapiens, UniProt P01889, A329T/C349S/D138N/D201E/E176V/E187T/E204Q/E69G/I76V/K202T/L119W/R155S/R180L/S121T/S35A/S48A/V127L/V306I/V36M/Y140L)
HLA B*5101 = HLA B*5101 (Homo sapiens, UniProt P01889, A329T/A93T/A95T/C349S/D138N/D201E/D98Y/E187L/E204Q/E69T/G107R/I218V/K202T/L105A/L119W/N104I/Q94N/R106L/R155S/R180L/S101N/S121T/S35A/S48A/V306I/V36M/Y195H/Y91F)
HLA A*3001 = HLA A*3001 (Homo sapiens, UniProt P04439, D140H/D185E/E176W/F33S/G80R/H175R/K168Q/R138E/R41S); assay: biochemical
H-2 D^d = H-2 D^d (Mus musculus, UniProt P01900)
Sequence of H-2 D^d (P01900 whole entry, looked up): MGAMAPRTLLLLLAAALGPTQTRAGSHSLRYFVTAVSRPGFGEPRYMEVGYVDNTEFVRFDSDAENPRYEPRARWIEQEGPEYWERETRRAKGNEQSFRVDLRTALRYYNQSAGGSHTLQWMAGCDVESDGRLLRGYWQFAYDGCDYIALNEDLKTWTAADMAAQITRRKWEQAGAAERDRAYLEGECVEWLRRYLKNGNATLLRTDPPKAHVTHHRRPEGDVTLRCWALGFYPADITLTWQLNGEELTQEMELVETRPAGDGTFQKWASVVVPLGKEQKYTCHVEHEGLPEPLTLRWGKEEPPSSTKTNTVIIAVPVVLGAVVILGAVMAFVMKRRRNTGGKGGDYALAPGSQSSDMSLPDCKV

HLA B*5301 = HLA B*5301 (Homo sapiens, UniProt P01889, A329T/A93T/A95T/C349S/D201E/D98Y/E176V/E187L/E204Q/E69T/G107R/I218V/K202T/L105A/L119I/N104I/Q94N/R106L/R155S/R180L/S101N/S121R/S35A/S48A/T118I/V127L/V306I/V36M/Y140S/Y91F)
HLA B*5802 = HLA B*5802 (Homo sapiens, UniProt P01889, A329T/C349S/D201E/D98Y/E176V/E187L/E204Q/E69T/G107R/I218V/I90N/K202T/L105A/N104I/N87E/Q89R/Q94S/R106L/R155S/R180L/R86G/S101N/S121W/S35A/S48A/V127L/V306I/V36M/Y140S/Y91M)
HLA B*0801 = HLA B*0801 (Homo sapiens, UniProt P01889, A93T/A95T/D138N/E176V/E187T/K202T/Q94N/R180D/S35A/V36M/Y33D/Y91F); assay: biochemical
H-2 K^k = H-2 K^k (Mus musculus, UniProt P04223)
Sequence of H-2 K^k (P01887 21-119): as the sequence (P01887 21-119) above
Sequence of H-2 K^k (P04223 22-369): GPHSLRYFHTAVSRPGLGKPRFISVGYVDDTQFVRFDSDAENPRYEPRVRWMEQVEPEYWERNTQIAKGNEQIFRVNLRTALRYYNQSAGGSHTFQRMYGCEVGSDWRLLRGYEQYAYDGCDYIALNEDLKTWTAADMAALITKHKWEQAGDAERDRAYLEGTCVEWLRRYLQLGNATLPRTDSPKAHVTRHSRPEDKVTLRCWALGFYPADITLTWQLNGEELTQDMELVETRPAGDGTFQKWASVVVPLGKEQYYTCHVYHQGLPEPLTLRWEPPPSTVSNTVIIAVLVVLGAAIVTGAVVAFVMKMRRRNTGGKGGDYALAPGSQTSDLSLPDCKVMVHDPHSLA

HLA A*6802 = HLA A*6802 (Homo sapiens, UniProt P04439, A269V/D140Y/D185E/E176V/E277Q/E87N/F33Y/G231S/I121R/I166T/I218V/L180W/L300P/L318F/N151K/P208A/P217A/Q86R/R138H/R169H/S129P/T345S/V36M)
HLA B*5801 = HLA B*5801 (Homo sapiens, UniProt P01889, A329T/C349S/D201E/D98Y/E176V/E187L/E204Q/E69T/G107R/I218V/I90N/K202T/L105A/L119I/N104I/N87E/Q89R/Q94S/R106L/R155S/R180L/R86G/S101N/S121R/S35A/S48A/T118I/V127L/V306I/V36M/Y140S/Y91M)
HLA B*3501 = HLA B*3501 (Homo sapiens, UniProt P01889, A329T/A93T/A95T/C349S/D201E/D98Y/E176V/E187L/E204Q/E69T/I218V/K202T/L119I/Q94N/R155S/R180L/S121R/S35A/S48A/T118I/V127L/V306I/V36M/Y140S/Y91F)

Sequence | Normalized average relative binding affinity(ARB) (HLA A*3201) | Normalized average relative binding affinity(ARB) (H-2 K^d) | Normalized average relative binding affinity(ARB) (HLA B*1501) | Normalized average relative binding affinity(ARB) (H-2 D^b) | Normalized average relative binding affinity(ARB) (HLA B*1503) | Normalized average relative binding affinity(ARB) (HLA B*5401) | Normalized average relative binding affinity(ARB) (HLA B*5101) | Normalized average relative binding affinity(ARB) (HLA A*3001) | Normalized average relative binding affinity(ARB) (H-2 D^d) | Normalized average relative binding affinity(ARB) (HLA B*5301) | Normalized average relative binding affinity(ARB) (HLA B*5802) | Normalized average relative binding affinity(ARB) (HLA B*0801) | Normalized average relative binding affinity(ARB) (H-2 K^k) | Normalized average relative binding affinity(ARB) (HLA A*6802) | Normalized average relative binding affinity(ARB) (HLA B*5801) | Normalized average relative binding affinity(ARB) (HLA B*3501)
XXXXXXAXX [3064.0121] | 0.20 | 0.17 | 0.69 | 0.65 | 0.0014 | 0.45 | 0.24 | 0.12 | 0.037 | 0.31 | 0.032 | 0.44 | 0.12 | 0.37 | 0.0045 | 0.22
XXXXXRXXX [3064.0115] | 0.36 | 1.0 | 0.13 | 0.50 | 0.51 | 0.11 | 0.27 | 0.21 | 0.42 | 0.095 | 0.36 | 0.15 | 0.39 | 0.43 | 0.25 | 0.088
XXXXXLXXX [3064.0110] | 0.33 | 0.34 | 0.12 | 0.64 | 0.37 | 0.21 | 0.55 | 0.28 | 0.54 | 0.18 | 0.31 | 0.061 | 0.25 | 0.16 | 0.49 | 0.29
XXXXRXXXX [3064.0095] | 0.27 | 0.023 | 0.64 | 0.020 | 0.28 | 0.21 | 0.49 | 0.80 | 1.0 | 0.11 | 0.20 | 1.0 | 0.072 | 0.19 | 0.15 | 0.23
XXXXXXXNX [3064.0152] | 0.42 | 0.40 | 0.12 | 0.099 | 0.13 | 0.076 | 0.33 | 0.54 | 0.49 | 0.21 | 0.27 | 0.086 | 0.066 | 0.18 | 0.25 | 0.14
XXXXXXDXX [3064.0123] | 0.026 | 0.051 | 0.10 | 0.66 | 0.051 | 0.28 | 0.15 | 0.014 | 0.053 | 0.049 | 0.022 | 0.072 | 0.030 | 0.37 | 0.066 | 0.12
XXXXXMXXX [3064.0111] | 0.44 | 0.31 | 0.44 | 0.52 | 0.43 | 0.43 | 0.52 | 0.18 | 0.48 | 0.23 | 0.24 | 0.031 | 0.36 | 0.14 | 0.41 | 0.18
XXXIXXXXX [3064.0068] | 0.15 | 0.22 | 0.27 | 0.87 | 0.26 | 0.16 | 1.0 | 0.34 | 0.79 | 0.18 | 0.33 | 0.38 | 0.39 | 0.088 | 0.23 | 1.0
